Two molecules from patent US6897206B2, “Combinations for the treatment of inflammatory disorders” (CombinatoRx, Inc., priority 2001, dated 2005) can be followed below.

Assay [1] deals with TNFα secretion. Briefly: TNFα ELISA; suppression of TNFα secretion from phorbol 12-myristate 13-acetate and ionomycin stimulated PBMCs/blood. The settings on record: Homo sapiens, PBMC; for inhibition at 0.05 µM: amoxapine 0.050 μM alone (prednisolone 0.000 μM); for inhibition at 0.199 µM: amoxapine 0.199 μM alone (prednisolone 0.000 μM); for inhibition at 0.797 µM: amoxapine 0.797 μM alone (prednisolone 0.000 μM); for inhibition at 0.004 µM: prednisolone 0.004 μM alone (amoxapine 0.000 μM); for inhibition at 0.017 µM: prednisolone 0.017 μM alone (amoxapine 0.000 μM); for inhibition at 0.069 µM: prednisolone 0.069 μM alone (amoxapine 0.000 μM); for inhibition at 0.277 µM: prednisolone 0.277 μM alone (amoxapine 0.000 μM). Background: ELISA stands for enzyme-linked immunosorbent assay.
Protocol: Stock solutions of amoxapine (16 mg/ml) (Sigma-Aldrich, St. Louis, Mo.; catalog number A129) and prednisolone (1.6 mg/ml) (Sigma-Aldrich, catalog number P6004) were made in dimethylsulfoxide (DMSO). The amoxapine master plates were made by adding 25 μl of the concentrated stock solution to columns 3, 9, and 15 (rows C through N) of a polypropylene 384-well storage plate that had been pre-filled with 75 μl of anhydrous DMSO. Using a TomTec Quadra Plus liquid handler, the 25 μl of amoxapine stock solution was serially diluted two-fold four times into the adjacent columns (columns 4-7, 10-13, 16-19). […] The prednisolone master plates were made by adding 25 μl of the concentrated prednisolone stock solution to the appropriate wells (row C, columns 3-8; row C, columns 9-14; row C, columns 15-20; row I, columns 3-8; row I, columns 9-14; row I, columns 15-20) of the appropriate prednisolone master polypropylene 384-well storage plate. These master plates had been pre-filled with 75 μl of anhydrous DMSO. Using the TomTec Quadra Plus liquid handler, the 25 μl was serially diluted two-fold four times in the adjacent rows (rows D-G, and J-M). […] Master plates were sealed and stored at −20 C until ready for use.
The final amoxapine/prednisolone combination plate was generated by transferring 1 μl from each of the amoxapine and prednisolone master plates to a dilution plate containing 100 μl of media (RPMI; Gibco BRL, #11875-085), 10% Fetal Bovine Serum (Gibco BRL, #25140-097), 2% Penicillin/Streptomycin (Gibco BRL, #15140-122)) using the TomTec Quadra Plus liquid handler. This dilution plate was then mixed and a 10 μl aliquot transferred to the final assay plate, which had been pre-filled with 40 μl/well RPMI media containing the appropriate stimulant to activate TNFα secretion (see below).
(§1) The compound dilution matrix was assayed using a TNFα ELISA method. Briefly, a 100 μl suspension of diluted human peripheral blood mononuclear cells (PBMCs) contained within each well of a polystyrene 384-well plate (NalgeNunc) was stimulated to secrete TNFα by treatment with a final concentration of 10 ng/ml phorbol 12-myristate 13-acetate (Sigma) and 750 ng/μl ionomycin (Sigma). Various concentrations of each test compound were added at the time of stimulation. After 16-18 hours of incubation at 37° C. in a humidified incubator, the plate was centrifuged and the supernatant transferred to a white opaque polystyrene 384 well plate (NalgeNunc, Maxisorb) coated with an anti-TNF antibody (PharMingen, #18631 D). After a two-hour incubation, the plate was washed (Tecan PowerWasher 384) with phosphate buffered saline (PBS) containing 0.1% Tween 20 (polyoxyethylene sorbitan monolaurate) and incubated for an additional one hour with another anti-TNF antibody that was biotin labeled (PharMingen, 18642D) and horseradish peroxidase (HRP) coupled to strepavidin (PharMingen, #13047E). After the plate was washed with 0.1% Tween 20/PBS, the HRP substrate (which contains luminol, hydrogen peroxide, and an enhancer such as para-iodophenol) was added to each well and light intensity measured using a LJL Analyst luminometer. Control wells contained a final concentration of 1 μg/ml cyclosporin A (Sigma).

For assay [2], the system named is TNFα secretion. Briefly: cells. As to conditions: Homo sapiens, read-out: TNFα inhibition.
Protocol: as §1
Setting [3] is: read-out: TNFα inhibition, Table 1.
[4] abbreviates: read-out: TNFα inhibition, Table 2.

Consider `Clc1ccc2c(c1)C(N1CCNCC1)=Nc1ccccc1O2` [Amoxapine, 2-cloro-11(1-piperazinyl)dibenz[b,f][1,4]oxapine], for which the inhibition at 0.4 µM in assay [1] (read-out: TNFα inhibition activity, follow-up secondary screen, amoxapine alone at 400 nM) came out at 16%. In assay [1] (setting [3]), the inhibition at 0.05 µM came to 7.3%, the inhibition at 0.199 µM turned out to be 16.7% and the inhibition at 0.797 µM amounted to 24.3%. Moreover, the inhibition at 3.188 µM in assay [1] (read-out: TNFα inhibition, Table 1, amoxapine 3.188 μM alone (prednisolone 0.000 μM)) is 50.4%. Moreover, the inhibition at 12.75 µM in assay [1] (read-out: TNFα inhibition, Table 1, amoxapine 12.750 μM alone (prednisolone 0.000 μM)) came to 73%. In addition, in assay [1] (setting [4]), the inhibition at 0.05 µM is -3.31%, the inhibition at 0.199 µM amounted to 14.2% and the inhibition at 0.797 µM worked out at 21.9%. In assay [1] (read-out: TNFα inhibition, Table 2, amoxapine 0.100 μM alone (prednisolone 0.000 μM)), the inhibition at 0.1 µM turned out to be 3.6%. Further, the inhibition at 0.398 µM in assay [1] (read-out: TNFα inhibition, Table 2, amoxapine 0.398 μM alone (prednisolone 0.000 μM)) was 16.4%. Further, the inhibition at 1.593 µM in assay [1] (read-out: TNFα inhibition, Table 2, amoxapine 1.593 μM alone (prednisolone 0.000 μM)) stood at 37.1%. Besides, the inhibition at 3.187 µM in assay [1] (read-out: TNFα inhibition, Table 2, amoxapine 3.187 μM alone (prednisolone 0.000 μM)) was determined as 48%. The inhibition at 6.373 µM in assay [1] (read-out: TNFα inhibition, Table 2, amoxapine 6.373 μM alone (prednisolone 0.000 μM)) came out at 64.4%. For the same molecule, the inhibition at 12.747 µM in assay [1] (read-out: TNFα inhibition, Table 2, amoxapine 12.747 μM alone (prednisolone 0.000 μM)) is 80.9%. In addition, in assay [2], the inhibition at 0.05 µM stood at 3%, the inhibition at 0.1 µM came out at 5.52%, the inhibition at 0.199 µM came out at 2.39% and the inhibition at 0.398 µM worked out at 8.1%. Besides, in assay [2], the inhibition at 0.797 µM was determined as 13.1%, the inhibition at 1.593 µM amounted to 16.8%, the inhibition at 3.187 µM stood at 24.2% and the inhibition at 6.373 µM was 21.3%. For the same molecule, the inhibition at 12.747 µM in assay [2] came out at 49.6%.

Turning to `C[C@]12C=CC(=O)C=C1CC[C@@H]1[C@@H]2[C@@H](O)C[C@@]2(C)[C@H]1CC[C@]2(O)C(=O)CO` [Prednisolone, 1,4-pregnadiene-11beta, 17alpha,21-triol-3,20-dione], the inhibition at 0.009 µM in assay [1] (read-out: TNFα inhibition activity, follow-up secondary screen, prednisolone alone at 9 nM) stood at 14%; in assay [1] (read-out: TNFα inhibition, Table 2, prednisolone 0.009 μM alone (amoxapine 0.000 μM)), 14.3%; in assay [2] it was 30.2%. The values for the inhibition at 0.004 µM in assay [1] (setting [3]), in assay [1] (setting [4]) and in assay [2] were 2.69%, 9.62% and 12.1%, respectively. For the same molecule, the figures for the inhibition at 0.017 µM in assay [1] (setting [3]), in assay [1] (setting [4]) and in assay [2] were 19.1%, 24.7% and 37.1%, respectively. Also, the inhibition at 0.069 µM in assay [1] (setting [3]) turned out to be 22.3%; in assay [1] (setting [4]), 24.6%; in assay [2], 38.8%. The inhibition at 0.277 µM in assay [1] (setting [3]) was found to be 26.8%; in assay [1] (setting [4]), 36.9%; in assay [2] it was 48.8%. Besides, the inhibition at 1.11 µM in assay [1] (read-out: TNFα inhibition, Table 1, prednisolone 1.110 μM alone (amoxapine 0.000 μM)) came out at 27.6%; in assay [1] (read-out: TNFα inhibition, Table 2, prednisolone 1.110 μM alone (amoxapine 0.000 μM)), 34.6%; in assay [1] (read-out: TNFα inhibition, follow-up secondary screen, 1110 nM prednisolone alone), 35%; in assay [1] (read-out: inhibit TNFα secretion, prednisolone alone at 1.11 μM), 28%; in assay [2] it was 60.1%. Moreover, the inhibition at 0.035 µM in assay [1] (read-out: TNFα inhibition, Table 2, prednisolone 0.035 μM alone (amoxapine 0.000 μM)) was determined as 24.1%; in assay [2], 33.1%. The inhibition at 0.139 µM was determined as 25.7% in assay [1] (read-out: TNFα inhibition, Table 2, prednisolone 0.139 μM alone (amoxapine 0.000 μM)) and 48.5% in assay [2].
